From patent US12679839B2, “Cyclin-dependent kinase 7 (CDK7) non-covalent inhibitors” (JANSSEN PHARMACEUTICA NV, priority 2020, dated 2026)

Columns and labels:
[1] = target: T1, CDK7/Cyclin H/MAT-1 complex (Homo sapiens, UniProt P50613); assay: Absorbance kinetic assay (20 nM CDK7/Cyclin H/MAT-1 complex); format: biochemical; conditions: for IC50: read-out: CDK7 (20 nM) pIC50 (converted)
T1 construct: Human CDK7 (amino acids 1-346); His6 (N); TEV protease cleavage site (N); made in house; host or cells: baculovirus-SF9 insect cells
Method: Human CDK7 (amino acids 1-346) containing an N-terminal His6-tag followed by a tobacco etch virus (TEV) protease cleavage site, human MAT1 (amino acids 1-309) and human cyclin H (amino acids 1-323) were co-expressed in the baculovirus-SF9 insect cell expression system to generate a trimeric complex. Cell pellets were collected 72 h post-infection and were resuspended by Dounce homogenization in 20 mM Hepes-NaOH (pH 8.0), 300 mM NaCl, 10% glycerol, 2 mM dithiothreitol DTT), and 20 mM Imidazole supplemented with cOmplete™ Protease Inhibitor Cocktail (Roche) and 25 U/mL Benzonase® Nuclease HC according to the manufacturer's instructions. Cells were lysed by passing through a Microfluidics M110Y Microfluidizer 3 times at 600 kPa followed by centrifugation at 38,000×g at 4° C. for 1 hour. The supernatant was loaded onto a pre-equilibrated HisTrap HP column and eluted in 20 mM Hepes-NaOH (pH 8.0), 50 mM NaCl, 10% glycerol, 2 mM DTT, and 400 mM Imidazole. The eluate was further purified by gel filtration on a Superdex S200 16/60 column and eluted with 20 mM Hepes-NaOH (pH 7.5), 50 mM NaCl, 10% Glycerol, 2 mM DTT. Fractions containing a trimeric complex of CDK7, cyclin H, and MAT1 in a 1:1:1 ratio were pooled and concentrated to 3 mg/mL in a 10 kDa MWCO concentrator, and diluted to a final concentration of 1.6 mg/mL in 11.1 mM Hepes-NaOH (pH 8.0), 27.8 mM NaCl, 1.1 mM DTT and 50% glycerol. […]
Absorbance Kinetic Assay (20 nM CDK7/Cyclin H/MAT-1 Complex)
CDK7 complex catalyzes the ATP-dependent phosphorylation of a peptide substrate CDK7/9-tide that is derived from RNA Pol II to produce phosphorylated peptide and ADP. The kinase reaction product ADP was converted to lactate and NAD^+ in the presence of phosphoenol pyruvate (PEP), NADH and coupling enzymes lactate dehydrogenase (LDH) and pyruvate kinase (PK). CDK7 complex catalytic activity was measured by following the absorbance intensity continuously at 340 nm that corresponds with the depletion of NADH.
Absorbance at 340 nm was followed kinetically at an interval of 2 minutes for 8 hours.
The assay was carried out with 100 μl reaction volume per well in a 384-well plate that was pre-spotted nanoliter volume of compounds by LabCyte Echo 555. Compound dilution plates were made by 2-fold (could vary upon necessity) dilution in DMSO for 11 concentrations plus a DMSO control of uninhibited reaction. 2× substrate and coupling reagent mixture was added to the assay plate followed by an addition of an equal volume of 40 nM CDK7/Cyclin H/MAT-1 complex. After mixing, assay plates were spun at 2000 rpm for 3 minutes and then transferred to the plate reader for data collection.
For reversible inhibitors, the absorbance reaction progress curves were linear. The steady-state rate was derived from the slope of the linear curves. The following equation is applied to determine percent inhibition.
[formula] • νo=max rate (uninhibited rate) • νi=inhibited rate
The IC50 value is calculated by the following equation:
[formula] where νo is the rate in the absence of inhibitor, νmin is the rate at highest inhibitor concentration, and h is the Hill coefficient. Flint Assay (5 nM CDK7/Cyclin H/MAT-1 Complex)

[2] = system: RNA polymerase II Serine 5 phosphorylation (Rpb1 CTD), downstream substrate of CDK7; assay: Imaging-based cellular RNA PolII Ser5 phosphorylation assay in A549 cells; format: cell-based, human; conditions: challenged with compound for 3 hours; for IC50: Homo sapiens, A549, 3 h, read-out: pRNA polII Ser5 (A549) pIC50 (converted)
Source text: Dosing curves were fitted using the following equation to obtain IC50: Y=Bottom+(Top−Bottom)/(1+10^((log IC50−X)*Hill slope)) where X=log10 of the compound concentration; top and bottom can be defined by PC and NC respectively. Imaging-Based Cellular RNA PolII Ser5 Phosphorylation Assay
To evaluate inhibition of CDK7 kinase activity, a 384-well automated imaging assay was used. This assay detects Serine 5 phosphorylation on a unique heptapeptide sequence in the C-terminal domain of Rpb1 subunit of RNA polymerase II, the downstream substrate of CDK7. This heptapeptide sequence is repeated up to 52 times in the CTD of Rpb1.
A549 adenocarcinoma human alveolar basal epithelial cells (ATCC, CCL-185), rabbit Phospho-Rpb1 CTD (Ser5) antibody (D9N51 (Cell Signaling Technology)), DMEM (Sigma), Fetal Bovine Serum (Biowest), L-glutamine (Sigma), Penicillin/Streptomycin (Life Technologies), Sodium Pyruvate (Sigma), Hepes (Sigma), poly-D-lysine coated μclear 384 black plates (Greiner), formaldehyde (PolySciences), D-PBS (Sigma), Methanol (Sigma), Alexa Fluor 488 goat anti rabbit IgG secondary antibody (Life Technologies), HCS CellMask™ Deep Red stain (Life Technologies), Hoechst 33258 (Invitrogen).
RNA Polymerase II Serine 5 phosphorylation was detected using a specific rabbit Phospho-Rpb1 CTD (Ser5) antibody. A549 adenocarcinoma human alveolar basal epithelial cells were seeded in 20 μl medium (DMEM supplemented with 1% Fetal Bovine Serum (heat inactivated 30′ 56° C.), 2 mM L-glutamine, 50 U/ml penicillin 50 μg/ml streptomycin, 1 mM sodium pyruvate and 50 mM hepes) at 1000 cells/well and cultured in poly-D-lysine coated μclear 384 black plates for 20 hours at 37° C. and 5% CO2.
After incubation cells were challenged with compound for 3 hours at 37° C. and 5% CO2. DMSO was used as high control and as low control 10 μM of LDC4297 reference compound was used. 40 nl of test compounds and controls were spotted in cell plates using Echo Liquid Handler (Echo 550, Labcyte). Incubation was followed by 20 minutes fixation with 20 μl 10% formaldehyde at room temperature. Medium/formaldehyde solution was removed, plates were washed 3 times with 30 μl D-PBS (w/o Ca^2+ and Ma^2+) and permeabilization was done by adding 20 μl ice cold methanol for 20 minutes. Cells were washed again 3 times with 30 μl D-PBS and 20 μl blocking buffer (25 ml fetal bovine serum in 500 ml D-PBS) was added for 1 hour.
After removing blocking buffer 20 μl 1/1000 primary antibody rabbit. Phospho-Rpb1 CTD (Ser5) antibody was added which binds to the phosphorylated Serine5 of the heptapeptide sequences in the CTD of Rpb1. Primary antibody was removed, and plates were washed 3 times with 30 μl D-PBS followed by addition of 20 μl 1/2000 Alexa Fluor 488 goat anti rabbit IgG secondary antibody for final detection of Phospho-Rpb1 CTD (Ser5) together with 1/5000 HCS CellMask™ Deep Red stain for membrane staining and 1/5000 Hoechst 33258 for nucleus staining. Last, plates were washed 2 times with 30 μl D-PBS and wells were filled with 40 μL D-PBS, plates were sealed (Thermowell sealing tape) and stored at 4° C. until reading. Plates were read with Opera Phenix (Perkin Elmer) with 10× air objective. Data were calculated and analyzed in Phaedra.
IC50 values were calculated using the following formula:
Average value of all HC's and all LC's are used for normalizations. % Effect=100−(sample−LC)/(HC−LC)×100% Control=(sample/HC)×100
A best-fit curve is fitted by a minimum sum of squares method to the plot of % Control vs. compound concentration. From this an IC50 value can be obtained. An estimate of the slope of the plot in terms of the Hill coefficient is also obtained.

T1 sequence (P50613 whole entry, the tested form may be a part): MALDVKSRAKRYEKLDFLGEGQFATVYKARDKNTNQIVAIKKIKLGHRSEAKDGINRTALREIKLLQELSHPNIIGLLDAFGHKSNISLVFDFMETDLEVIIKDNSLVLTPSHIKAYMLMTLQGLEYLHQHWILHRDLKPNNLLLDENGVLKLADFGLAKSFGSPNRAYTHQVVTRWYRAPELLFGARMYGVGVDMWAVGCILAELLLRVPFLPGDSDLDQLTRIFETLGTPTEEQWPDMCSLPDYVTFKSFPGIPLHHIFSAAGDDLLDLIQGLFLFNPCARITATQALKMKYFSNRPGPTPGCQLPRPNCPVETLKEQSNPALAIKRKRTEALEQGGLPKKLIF
T1 sequence (P51946 whole entry partner, the tested form may be a part): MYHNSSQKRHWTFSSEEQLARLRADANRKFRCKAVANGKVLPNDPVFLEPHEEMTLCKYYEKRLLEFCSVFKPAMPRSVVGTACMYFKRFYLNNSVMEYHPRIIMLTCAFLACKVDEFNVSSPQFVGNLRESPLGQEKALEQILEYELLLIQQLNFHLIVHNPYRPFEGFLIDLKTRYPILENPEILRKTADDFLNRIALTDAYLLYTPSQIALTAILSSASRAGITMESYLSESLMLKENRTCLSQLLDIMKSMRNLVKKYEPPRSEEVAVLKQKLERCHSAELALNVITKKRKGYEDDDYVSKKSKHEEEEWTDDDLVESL
T1 sequence (P51948 whole entry partner, the tested form may be a part): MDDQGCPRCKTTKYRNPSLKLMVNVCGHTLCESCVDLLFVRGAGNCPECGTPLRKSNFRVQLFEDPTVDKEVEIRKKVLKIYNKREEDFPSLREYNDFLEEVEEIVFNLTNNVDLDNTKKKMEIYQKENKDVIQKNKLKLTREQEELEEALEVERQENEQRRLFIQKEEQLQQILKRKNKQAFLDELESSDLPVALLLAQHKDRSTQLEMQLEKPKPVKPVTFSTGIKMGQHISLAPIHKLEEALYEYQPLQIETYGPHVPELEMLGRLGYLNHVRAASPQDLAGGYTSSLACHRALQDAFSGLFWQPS

IC50 [1] [µM] | IC50 [2] [µM] | CDK7 (20 nM) pIC50 [1] | pRNA polII Ser5 (A549) pIC50 [2] | SMILES
> 10 | > 10 |  |  | CC[C@H]1Cc2cnc(NC3CCOCC3)nc2CN1C(=O)[C@H]1CCN(C)C[C@@H]1c1ccccc1 (relative stereo) [Compound 186]
 | 0.141 | >8.01 |  | C[C@@H]1Cc2cnc(NC3CCC(F)(F)CC3)nc2CN1C(=O)[C@H]1CCN(C)C[C@@H]1c1ccccc1 [Compound 64]
 | 1.38 | 7.39 |  | C[C@@H]1Cc2cnc(NC3CCN(C4CC4)CC3)nc2CN1C(=O)[C@H]1CCN(C)C[C@@H]1c1ccccc1 [Compound 42]
> 10 | > 10 |  |  | Cc1ccc([C@H]2CN(C)CC[C@@H]2C(=O)N2Cc3nc(NC4CCOCC4)ncc3C[C@H]2C)cn1 (relative stereo) [Compound 107]
 | 0.513 | 7.89 |  | CN1CCN(C(=O)N2Cc3nc(NC4CCOCC4)ncc3CC2(C)C)[C@@H](c2ccccc2)C1 [Compound 205]
0.0162 | > 10 |  |  | C[C@@H]1Cc2cnc(NC3CCOCC3)nc2CN1C(=O)[C@@H]1CCN(C)C[C@H]1c1cccnc1 (relative stereo) [Compound 117]
 | 0.162 | 6.83 |  | CC(C)N1CC[C@H](C(=O)N2Cc3nc(NC4CCOCC4)ncc3C[C@H]2C)[C@@H](c2cccc(F)c2)C1 (single isomer, unassigned) [Compound 163]
0.724 | 4.27 |  |  | C[C@@H]1CN(C(=O)[C@H]2CCN(C)C[C@@H]2c2ccccc2)[C@H](C)c2nc(NC3CCOCC3)ncc21 (relative stereo) [Compound 182]
 |  | 6.95 |  | CC(C)N1CC[C@H](C(=O)N2Cc3nc(NC4CCOCC4)ncc3C[C@H]2C)[C@@H](c2ccc(Cl)c(F)c2)C1 (single isomer, unassigned) [Compound 162]
 | 0.2 | 7.78 |  | C[C@@H]1Cc2cnc(NCc3ccccn3)nc2CN1C(=O)[C@H]1CCN(C)C[C@@H]1c1ccccc1 [Compound 35]
0.0257 | 0.537 |  |  | C[C@H]1c2nc(NC3CCOCC3)ncc2CCN1C(=O)[C@H]1CCN(C)C[C@@H]1c1ccccc1 (relative stereo) [Compound 184]
0.012 | ~0.0676 |  |  | C[C@@H]1Cc2cnc(NC3CCOCC3)nc2CN1C(=O)[C@H]1CCN(C)C[C@@H]1c1ccc(F)cc1 (relative stereo) [Compound 120]
4.68 | > 10 |  |  | C[C@@H]1Cc2cnc(NC3CCOCC3)nc2[C@@H](C)N1C(=O)[C@H]1CCN(C)C[C@@H]1c1ccccc1 (single isomer, unassigned) [Compound 195a]
 | > 10 | 7.38 |  | C[C@@H]1Cc2cnc(NCc3cn(C)cn3)nc2CN1C(=O)[C@H]1CCN(C)C[C@@H]1c1ccccc1 [Compound 63]
 |  | <5 | ~5.23 | CO[C@H]1CC[C@H](Nc2cc3c(cn2)C[C@H](C)N(C(=O)[C@@H]2CCN(C)C[C@H]2c2cccc(C)c2)C3)CC1 [Compound 177b]
 | > 10 | 5.89 |  | C[C@@H]1Cc2cnc(NC3CCOCC3)nc2CN1C(=O)[C@@H]1CCN(C)C[C@H]1C(F)(F)F [Compound 140a]
 | > 10 | 5.87 |  | C[C@@H]1Cc2cnc(NC3CCOCC3)nc2CN1C(=O)[C@@H]1CC[C@H](N(C)C)CN1c1ccccc1 (mixture of isomers) [Compound 168]
 | > 10 | <5 |  | C[C@@H]1Cc2cnc(NC3CCOCC3)nc2CN1C(=O)[C@@H]1CCN(C)C[C@H]1c1ccc(Cl)c(F)c1 [Compound 122a]
0.12 | 6.31 |  |  | C[C@@H]1Cc2cnc(NC3CCOCC3)nc2CN1C(=O)[C@H]1CCN(C)C[C@@H]1C1CCOCC1 (relative stereo) [Compound 115]
 | > 10 | 6.18 |  | C[C@@H]1Cc2cnc(NC3CCN(S(=O)(=O)C4CC4)CC3)nc2CN1C(=O)[C@H]1CCN(C)C[C@@H]1c1ccccc1 [Compound 41]
2.95 | 4.17 |  |  | C[C@@H]1Cc2cnc(NCc3ccccc3)nc2CN1C(=O)[C@H]1CCN(C)C[C@@H]1C(F)(F)F (relative stereo) [Compound 142]
 | 3.89 | 5.65 |  | C[C@@H]1CN(C(=O)[C@H]2CCN(C)C[C@@H]2c2ccccc2)[C@@H](C)c2nc(NC3CCOCC3)ncc21 [Compound 180b]
 | 0.126 | 7.96 |  | C[C@@H]1Cc2cnc(NC3CC(C)(C)OC(C)(C)C3)nc2CN1C(=O)[C@H]1CCN(C)C[C@@H]1c1ccccc1 [Compound 24]
0.776 | 2.82 |  |  | C[C@@H]1Cc2cnc(NCc3ccn(C)n3)nc2[C@@H](C)N1C(=O)[C@H]1CCN(C)C[C@@H]1c1ccccc1 (relative stereo) [Compound 197]
 | 2.09 | 7.50 |  | Cc1ccc(CNc2ncc3c(n2)CN(C(=O)[C@H]2CCN(C)C[C@@H]2c2ccccc2)[C@H](C)C3)cn1 [Compound 27]
6.03 | > 10 |  |  | CO[C@H]1CC[C@H](Nc2ncc3c(n2)CN(C(=O)[C@H]2CCN(C)C[C@@H]2c2ccnc(C)c2)[C@H](C)C3)CC1 (relative stereo) [Compound 106]
